Drawing on patent publication US20240059677A1, “SUBSTITUTED PYRIMIDINE DERIVATIVES AS NICOTINIC ACETYLCHOLINESTERASE RECEPTOR ALPHA 6 MODULATOR” (priority 2020, published 2024), this text covers IC50 for 15 molecules.

By pIC50 is commonly meant −log10 of the IC50, conventionally taken in molar units. In general, IC50 refers to the midpoint of a concentration-inhibition curve.

pIC50: −log10 of the molar value.

T1 sequence (Q05901 25-458 V273S): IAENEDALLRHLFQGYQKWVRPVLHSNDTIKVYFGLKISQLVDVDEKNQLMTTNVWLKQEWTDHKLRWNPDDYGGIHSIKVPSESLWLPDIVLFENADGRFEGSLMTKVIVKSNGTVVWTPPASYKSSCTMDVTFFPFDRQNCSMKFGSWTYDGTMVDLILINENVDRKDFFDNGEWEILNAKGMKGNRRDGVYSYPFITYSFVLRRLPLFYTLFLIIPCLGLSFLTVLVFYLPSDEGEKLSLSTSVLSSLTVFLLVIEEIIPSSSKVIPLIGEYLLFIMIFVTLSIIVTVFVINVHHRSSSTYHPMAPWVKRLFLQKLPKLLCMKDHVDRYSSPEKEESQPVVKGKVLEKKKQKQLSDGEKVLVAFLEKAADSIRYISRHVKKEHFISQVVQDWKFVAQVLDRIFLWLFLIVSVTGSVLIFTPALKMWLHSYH
T1 sequence (P17787 26-502, stated change not applied, further chain): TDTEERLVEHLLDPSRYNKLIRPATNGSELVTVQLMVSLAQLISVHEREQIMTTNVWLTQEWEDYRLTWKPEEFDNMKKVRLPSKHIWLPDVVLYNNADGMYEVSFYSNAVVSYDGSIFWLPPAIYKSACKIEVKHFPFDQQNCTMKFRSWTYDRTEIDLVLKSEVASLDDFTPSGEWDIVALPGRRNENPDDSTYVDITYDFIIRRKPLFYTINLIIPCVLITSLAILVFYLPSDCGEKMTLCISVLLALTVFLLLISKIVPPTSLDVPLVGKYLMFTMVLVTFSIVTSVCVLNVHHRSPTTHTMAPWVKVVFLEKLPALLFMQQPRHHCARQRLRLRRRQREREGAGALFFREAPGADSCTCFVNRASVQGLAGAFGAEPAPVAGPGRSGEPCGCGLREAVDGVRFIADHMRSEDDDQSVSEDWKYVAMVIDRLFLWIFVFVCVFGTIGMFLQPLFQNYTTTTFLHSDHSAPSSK
T1 sequence (Q15825+P32297 fused with the stated changes): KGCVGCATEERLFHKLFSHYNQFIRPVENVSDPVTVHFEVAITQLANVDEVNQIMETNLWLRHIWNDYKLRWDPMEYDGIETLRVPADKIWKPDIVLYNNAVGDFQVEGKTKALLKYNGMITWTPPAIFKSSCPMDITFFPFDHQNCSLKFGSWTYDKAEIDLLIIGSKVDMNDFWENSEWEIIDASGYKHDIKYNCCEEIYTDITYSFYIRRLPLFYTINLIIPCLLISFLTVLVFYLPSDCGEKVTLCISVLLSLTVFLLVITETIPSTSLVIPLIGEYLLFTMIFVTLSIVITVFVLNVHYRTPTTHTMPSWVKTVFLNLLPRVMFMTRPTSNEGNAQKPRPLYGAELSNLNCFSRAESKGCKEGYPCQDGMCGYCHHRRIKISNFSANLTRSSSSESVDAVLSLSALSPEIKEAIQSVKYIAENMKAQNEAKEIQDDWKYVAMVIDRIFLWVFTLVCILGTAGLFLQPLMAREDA

The first assay concerns the target T1, human nAChRα6-α3 chimera, in addition to β2 and β3^V273S subunits (Homo sapiens, UniProt P32297+Q15825).
T1 construct: expressed in transfected cells
Nature of the assay: fluorescence-based calcium assay: inhibition of nicotine stimulated nAChRα6 activity (FLIPR). The following applies: HEK cell line stably expressing the receptor; 10 min pre-incubation, nicotine EC80; 10-point curve, duplicate wells; read-out: IC50. Here is the method: The ability of the test compounds to inhibit nicotine stimulated nAChRα6 activity was determined in a fluorescence-based calcium assay. Compound activity was determined using a HEK cell line stably expressing a human nAChRα6-α3 chimera, in addition to β2 and β3^V273S subunits (as in Capelli et al, Br J Pharmacol 163(2): 313-29 2011). In this cell line, nicotine stimulated an increase in intracellular calcium concentration, measured as an increase in fluorescence when cells were incubated with a calcium sensitive dye. Test compounds were pre-incubated with cells prior to nicotine stimulation to detect any reduction in the magnitude of the nicotine response.
The day prior to the assay, compounds were serially diluted in DMSO (200× final assay concentration (FAC)), in 384-well plates which were then stored in the dark at room temperature (RT) until use. Cells were seeded at 20 k/well in black, poly-D-lysine coated, clear bottom 384-well plates and incubated for 4 hours at 37° C., followed by overnight incubation at 30° C. The following day, the DMSO compound plate was diluted 1:20 (10×FAC) in assay buffer (HEPES buffered saline solution with 10 mM HEPES, 0.1% bovine serum albumin, 1 mM probenecid). A nicotine solution was prepared in assay buffer (7×FAC) and dispensed into a 384-well plate. The growth media was removed from the cell plate, replaced with 53 μl calcium dye/well (Calcium 5; Molecular Devices) and the plate incubated at 30° C. for 45 minutes. Test compounds were then added to the cells (7 μl of 10×FAC) and incubated for 10 minutes, after which nicotine EC80 (10 μl of 7×FAC) was added and changes in fluorescence measured using a FLIPR plate reader (Molecular Devices).
Compound activity was examined using a 10-point, half-log concentration-response range and each concentration was tested in duplicate wells.
Turning to `Cc1nc(NC2CC(C)(C)NC(C)(C)C2)ncc1-c1ccc(C(F)(F)F)cc1F` [Example 126, 5-(2-fluoro-4-(trifluoromethyl)phenyl)-4-methyl-N-(2,2,6,6-tetramethylpiperidin-4-yl)pyrimidin-2-amine], the pIC50 was 6.59. As to `Cc1nc(NC[C@@H]2CCCN2C)ncc1-c1ccc(C(F)(F)F)cc1F` [Example 91b, (S)-5-(2-fluoro-4-(trifluoromethyl)phenyl)-4-methyl-N-((1-methylpyrrolidin-2-yl)methyl)pyrimidin-2-amine], the pIC50 was 7.55. Same read-out and setting: with `Cc1nc(NCC2CCN(C)C2)ncc1-c1ccc(C(F)(F)F)cc1F` (stereo not drawn) [Example 99, 5-(2-fluoro-4-(trifluoromethyl)phenyl)-4-methyl-N-((1-methylpyrrolidin-3-yl)methyl)pyrimidin-2-amine] the figure was 7.08.

Turning to `Cc1nc(NC(=O)[C@H]2CCCN2C)ncc1-c1ccc(C(F)(F)F)cc1F` [Example 139, (R)—N-(5-(2-fluoro-4-(trifluoromethyl)phenyl)-4-methyl-pyrimidin-2-yl)-1-methylpyrrolidine-2-carboxamide], the pIC50 was 7.07. With `Cc1nc(NC2CCCN(C)C2)ncc1-c1ccc(F)cc1F` (single isomer, unassigned) [Example 77a, 5-(2,4-difluorophenyl)-4-methyl-N-(1-methylpiperidin-3-yl)pyrimidin-2-amine], the pIC50 was 7.15.

Consider `CN1CCCC(CNc2ncc(-c3ccc(F)cc3)cn2)C1` (stereo not drawn) [Example 4, 5-(4-fluorophenyl)-N-((1-methylpiperidin-3-yl)methyl)pyrimidin-2-amine], for which the pIC50 is 6.68.

Consider `COc1ccc(-c2nnc(NCC3CCCN3C)nc2C)c(F)c1` (single isomer, unassigned) [Example 54a, 6-(2-fluoro-4-methoxyphenyl)-5-methyl-N-((1-methylpyrrolidin-2-yl)methyl)-1,2,4-triazin-3-amine], for which the pIC50 was 6.48. With `COc1ccc(-c2cnc(NC3CCCC(OC)C3)nc2C)c(F)c1` (single isomer, unassigned) [Example 53a, 5-(2-fluoro-4-methoxyphenyl)-N-(3-methoxycyclohexyl)-4-methyl-pyrimidin-2-amine], the pIC50 is 5.91. Same read-out and setting: with `Cc1nc(NCC2CCCN2)ncc1-c1ccc(F)cc1F` (stereo not drawn) [Example 82, 5-(2,4-difluorophenyl)-4-methyl-N-(pyrrolidin-2-ylmethyl)pyrimidin-2-amine] the figure was 7.74. `Cc1nc(NCC2CCCN2C)nnc1-c1ccc(F)cc1F` (stereo not drawn) [Example 15, 6-(2,4-difluorophenyl)-5-methyl-N-((1-methylpyrrolidin-2-yl)methyl)-1,2,4-triazin-3-amine]: the pIC50 is 5.71. Still for that read-out and setting: the same measure for `COc1ccc(-c2cnc(NCCC3CCCN3C)nc2C)c(F)c1` (stereo not drawn) [Example 16, 5-(2-fluoro-4-methoxyphenyl)-4-methyl-N-(2-(1-methylpyrrolidin-2-yl)ethyl)pyrimidin-2-amine]: 7.12; for `Cc1nc(NC2CC3CCC(C2)N3C)ncc1-c1ccc(F)cc1F` (stereo not drawn) [Example 12, N-(5-(2,4-difluorophenyl)-4-methyl-pyrimidin-2-yl)-8-methyl-8-azabicyclo[3.2.1]octan-3-amine]: 6.97. Regarding `COc1ccc(-c2nnc(NCC3CCCN3C)nc2C)c(F)c1` (single isomer, unassigned) [Example 18a, 6-(2-fluoro-4-methoxyphenyl)-5-methyl-N-((1-methylpyrrolidin-2-yl)methyl)-1,2,4-triazin-3-amine], the pIC50 was 6.48. `Cc1nc(NCC2COCCN2C)ncc1-c1ccc(F)cc1F` (single isomer, unassigned) [Example 79b, 5-(2,4-difluorophenyl)-4-methyl-N-((4-methylmorpholin-3-yl)methyl) pyrimidin-2-amine]: the pIC50 is 6.53.

The assay is the same for the next values; noted with them: IC50 (μM), HEK cell line stably expressing the receptor; 10 min pre-incubation, nicotine EC80; 10-point curve, duplicate wells.
For `COc1ccc(-c2cnc(NCC3CCCCN3C)nc2C)c(Cl)c1` (stereo not drawn) [Example 35, 5-(2-chloro-4-methoxyphenyl)-4-methyl-N-((1-methylpiperidin-2-yl)methyl) pyrimidin-2-amine], the half-maximal inhibitory concentration (IC50) is 0.029 µM.
